Source: ChEMBL document CHEMBL5137022, “Antitumor Activity of Rutaecarpine in Human Colorectal Cancer Cells by Suppression of Wnt/β-Catenin Signaling” (J Nat Prod, 2022)
Active and inactive are the calls of the source. The rule behind the calls is not given here.

Experiments:
LS174T [1] = experiment: Induction of cell cycle arrest in human LS174T cells assessed as downregulation of cyclin E expression measured after 24 hrs by Western blot analysis; format: functional, cell-based; conditions: dose 5-20 µM, DDE = dose-dependent effect
LS174T [2] = experiment: Induction of cell cycle arrest in human LS174T cells assessed as accumulation of cells at G2/M phase at 10 uM measured after 24 hrs by RNase A/propidium iodide staining based flow cytometric analysis (reference value: 12.2 %); format: functional
LS174T [3] = experiment: Induction of cell cycle arrest in human LS174T cells assessed as accumulation of cells at G0/G1 phase at 20 uM measured at 36 hrs by RNase A/propidium iodide staining based flow cytometric analysis (reference value: 74.8 %); format: functional
LS174T [4] = experiment: Induction of cell cycle arrest in human LS174T cells assessed as downregulation of CDK2 expression measured after 24 hrs by Western blot analysis; format: functional, cell-based; conditions: dose 5-20 µM, DDE = dose-dependent effect
LS174T [5] = experiment: Downregulation of cyclin D1 expression in human LS174T cells at 2.5 to 20 uM incubated for 24 hrs by Western blot analysis; format: functional, cell-based; conditions: dose 2.5-20 µM
LS174T [6] = experiment: Induction of cell cycle arrest in human LS174T cells assessed as accumulation of cells at G0/G1 phase at 20 uM measured at 24 hrs by RNase A/propidium iodide staining based flow cytometric analysis (reference value: 74.8 %); format: functional
LS174T [7] = experiment: Induction of cell cycle arrest in human LS174T cells assessed as accumulation of cells at S phase at 20 uM measured at 36 hrs by RNase A/propidium iodide staining based flow cytometric analysis (reference value: 11.4 %); format: functional
Mus musculus [8] = experiment: Downregulation of snail protein expression in tumor of BALB/c mouse xenografted with human LS174T cells at 10 to 30 mg/kg, ip administered 3 times per week for 21 days by Western blot analysis; format: functional, organism-based; conditions: dose 10-30 mg/kg, time 21.0 day
LS174T [9] = experiment: Induction of apoptosis in human LS174T cells assessed as increase in early apoptotic cells at 20 to 40 uM measured after 48 hrs by AnnexinV-FITC/PI staining based flowcytometry analysis; format: functional, cell-based; conditions: dose 20-40 µM
LS174T [10] = experiment: Induction of cell cycle arrest in human LS174T cells assessed as accumulation of cells at G2/M phase at 20 uM measured at 24 hrs by RNase A/propidium iodide staining based flow cytometric analysis (reference value: 12.9 %); format: functional
LS174T [11] = experiment: Induction of apoptosis in human LS174T cells assessed as upregulation of cleaved caspase-9 expression measured after 48 hrs by Western blot analysis; format: functional, cell-based; conditions: dose 20-40 µM, DDE = dose-dependent effect
LS174T [12] = experiment: Induction of apoptosis in human LS174T cells assessed as increase in late apoptotic cells at 20 to 40 uM measured after 48 hrs by AnnexinV-FITC/PI staining based flowcytometry analysis; format: functional, cell-based; conditions: dose 20-40 µM
LS174T [13] = experiment: Induction of cell cycle arrest in human LS174T cells assessed as accumulation of cells at G0/G1 phase at 5 uM measured after 24 hrs by RNase A/propidium iodide staining based flow cytometric analysis (reference value: 71.7 %); format: functional
LS174T [14] = experiment: Induction of cell cycle arrest in human LS174T cells assessed as accumulation of cells at sub-G1 phase at 20 uM measured at 24 hrs by RNase A/propidium iodide staining based flow cytometric analysis (reference value: 0.7 %); format: functional
[15] = Toxicity in BALB/c nude mouse xenografted with human LS174T cells assessed as effect on body weight at 10 to 30 mg/kg, ip administered 3 times per week for 21 days; format: organism-based; conditions: in vivo, 504 h, dose 10-30 mg/kg, time 21 day
LS174T [16] = experiment: Induction of cell cycle arrest in human LS174T cells assessed as accumulation of cells at sub-G1 phase at 20 uM measured at 48 hrs by RNase A/propidium iodide staining based flow cytometric analysis (reference value: 0.7 %); format: functional
LS174T [17] = experiment: Induction of cell cycle arrest in human LS174T cells assessed as accumulation of cells at G0/G1 phase at 20 uM measured at 12 hrs by RNase A/propidium iodide staining based flow cytometric analysis (reference value: 74.8 %); format: functional
LS174T [18] = experiment: Induction of cell cycle arrest in human LS174T cells assessed as downregulation of cyclin D1 expression measured after 24 hrs by Western blot analysis; format: functional, cell-based; conditions: dose 5-20 µM, DDE = dose-dependent effect
LS174T [19] = experiment: Induction of cell cycle arrest in human LS174T cells assessed as upregulation of p21 expression measured after 24 hrs by Western blot analysis; format: functional, cell-based; conditions: dose 5-20 µM, DDE = dose-dependent effect
CCD-841CoN = experiment: Antiproliferative activity against human CCD-841CoN cells assessed as reduction in cell viability measured after 72 hrs by SRB assay; format: functional, cell-based
Mus musculus [20] = experiment: Downregulation of cyclin D1 expression in tumor of BALB/c mouse xenografted with human LS174T cells at 10 to 30 mg/kg, ip administered 3 times per week for 21 days by immunohistochemical based analysis; format: functional, organism-based; conditions: dose 10-30 mg/kg, time 21.0 day
[21] = Toxicity in BALB/c nude mouse xenografted with human LS174T cells assessed as effect on body weight at 30 mg/kg, IP administered 3 times per week for 21 days; format: organism-based; conditions: in vivo, 504 h, time 21 day
LS174T [22] = experiment: Antitumor activity against human LS174T cells xenografted in BALB/c nude mouse assessed as reduction in tumor volume at 10 mg/kg, ip administered 3 times per week for 21 days by electronic caliper method; format: functional; parameters: scale not given: the % may be the effect or the level left; conditions: time 21 day
LS174T [23] = experiment: Downregulation of c-Myc expression in human LS174T cells at 2.5 to 20 uM incubated for 24 hrs by Western blot analysis; format: functional, cell-based; conditions: dose 2.5-20 µM
LS174T [24] = experiment: Downregulation of N-cadherin expression in human LS174T cells at up to 8 uM incubated for 24 hrs by Western blot analysis; format: functional, cell-based
LS174T [25] = experiment: Downregulation of snail expression in human LS174T cells at up to 8 uM incubated for 24 hrs by Western blot analysis; format: functional, cell-based
RKO = experiment: Antiproliferative activity against human RKO cells harboring wild type beta-catenin assessed as reduction in cell viability measured after 72 hrs by SRB assay; format: functional, cell-based
[26] = Inhibition of Wnt/beta-catenin transactivation signalling in HEK293 cells transfected with renilla luciferase and TOPFlash reporter gene incubated for 24 hrs by dual-luciferase assay; format: cell-based; conditions: Homo sapiens, HEK293, 24 h
LS174T [27] = experiment: Induction of cell cycle arrest in human LS174T cells assessed as accumulation of cells […] at 20 uM measured after 24 hrs by RNase A/propidium iodide staining based flow cytometric analysis (reference value: 1.3 %); format: functional
LS174T [28] = experiment: Induction of cell cycle arrest in human LS174T cells assessed as accumulation of cells at S phase at 20 uM measured at 12 hrs by RNase A/propidium iodide staining based flow cytometric analysis (reference value: 11.4 %); format: functional
LS174T [29] = experiment: Induction of cell cycle arrest in human LS174T cells assessed as accumulation of cells at sub-G1 phase at 10 uM measured after 24 hrs by RNase A/propidium iodide staining based flow cytometric analysis (reference value: 1.3 %); format: functional
HCT-116 = experiment: Antiproliferative activity against human HCT-116 cells harboring beta-catenin mutant assessed as reduction in cell viability measured after 72 hrs by SRB assay; format: functional, cell-based; conditions: HCT-116, 72 h
SW480 = experiment: Antiproliferative activity against human SW480 cells harboring wild type beta-catenin assessed as reduction in cell viability measured after 72 hrs by SRB assay; format: functional, cell-based; conditions: SW480, 72 h

In the case of `O=c1c2ccccc2nc2n1CCc1c-2[nH]c2ccccc12` [RUTAECARPINE], the Activity (LS174T [1]) is reported as “Dde”, the Activity (LS174T [2]) is reported as 9.6% and the Activity (LS174T [3]) is reported as 87.4%. For the same compound, the Activity (LS174T [4]) was “Dde”, the Activity (LS174T [5]) was “Active” and the Activity (LS174T [6]) was 89.5%. The Activity (LS174T [7]) was 2.1%, the Activity (Mus musculus [8]) was “Active” and the Activity (LS174T [9]) was “Active”. The Activity (LS174T [10]) was 5.6%, the Activity (LS174T [11]) was “Dde” and the Activity (LS174T [12]) was “Active”. The Activity (LS174T [13]) was 75.8%, the Activity (LS174T [14]) was 2.7% and the Activity [15] was “Non-Toxic”. The Activity (LS174T [16]) was 13.9%, the Activity (LS174T [17]) was 80.3% and the Activity (LS174T [18]) was “Dde”. For the same compound, the Activity (LS174T [19]) was “Dde”, the IC50 (CCD-841CoN) was greater than 50 µM and the Activity (Mus musculus [20]) was “Active”. For the same compound, the Activity [21] was “Non-Toxic”, the Activity (LS174T [22]) was 25.9% and the Activity (LS174T [23]) was “Active”. The Activity (LS174T [24]) was “Active”, the Activity (LS174T [25]) was “Active” and the IC50 (RKO) was greater than 50 µM. For the same compound, the IC50 [26] was 4.3 µM, the Activity (LS174T [27]) was 1.5% and the Activity (LS174T [28]) was 2.4%. It also gave an Activity (LS174T [29]) of 1.3%, an IC50 (HCT-116) of 31.1 µM and an IC50 (SW480) greater than 50 µM.
